Test results published in US10946019B2, “Nurr1:RXR activating compounds for simultaneous treatment of symptoms and pathology of Parkinson's disease” (priority 2015, dated 2021).
Each block holds one compound with its values, some of them ahead of it.

Experiments:
[1] = biological target: Nurr1:RXRα heterodimer (Homo sapiens (Human), UniProt P19793); assay: Nurr1:RXRα-dependent luciferase reporter (DR5-TK-Luc) transactivation assay; assay type: cell-based; conditions: SHSY-5Y cells co-transfected with human Nurr1, RXRα and DR5-TK-Luc
[2] = Plasma and brain concentrations by LC-MS/MS after IP administration to mice; assay type: in vivo, mouse
Description: FIGS. 68A and 68B show the pharmacokinetic profile of XCT in blood plasma and in the brain of mice injected with this compound. […] Serial tail bleeds (n=3) were used for detection of the compound in plasma 1 and 2 hours after IP administration. Similarly, mice (n=3) were sacrificed 1 and 2 hours after IP administration and brains were dissected. The concentrations of the parent compound in plasma and brain were determined by LC-MS/MS.
The concentrations of the parent compound in plasma and brain were determined by LC/MSMS.
XCT0135908 was administered to mice to test its bioactivity.

[3] = system: tyrosine hydroxylase (TH); assay: Midbrain tyrosine hydroxylase expression by qPCR after administration to mice; assay type: in vivo, mouse; conditions: mice, IP or intracerebroventricular 1 and 10 mg/kg, different time points
Description: (§1) To assess the neuroprotective effect of compound 3, this compound was dosed to wt mice intraperitoneally (IP) at 10 mg/kg injections of compound 3 in Ethanol:PG:Saline 10:30:60. After 2 h and 4 h animals (n=3 per time point) were sacrificed, and their brains obtained. After extraction c-jun and tyrosine hydroxylase (TH) levels in brain extract were determined by qPCR (FIG. 1E, 1F).
Given the role of Nurr1:RXRα activation in the transcriptional regulation of DA biosynthesis genes, we tested whether compound 3 could increase DA levels in wt and ASYN transgenic mice (Tofaris et al. J. Neurosci. 26:3942-3950, 2006), which display reduced striatal DA levels after reaching adulthood. […] Aiming to model PD based on human genetic data, we also tested whether compound 3 could increase DA levels in ASYN transgenic mice. A single IP injection of compound 3 (10 mg/kg) was able increase striatal DA (t test p=0.01069) and DA metabolite levels in ASYN transgenics as well (FIG. 75C) in comparison to mice receiving vehicle.

[4] = biological target: Nur77:RXRα heterodimers (Homo sapiens (Human), UniProt P19793); assay: Relative activation of Nurr1 and Nur77 in a luciferase reporter assay; assay type: cell-based; conditions: FIG. 67
[5] = system: c-jun; assay: Midbrain c-jun expression by qPCR after administration to mice; assay type: in vivo, mouse
Description: FIGS. 69A-69C show the brain penetration, half-life, and c-jun transcriptional activation of compound 3. […] Mice (n=5) were sacrificed 1, 2, 4, 8 and 24 hours after IP administration and brains were dissected 1, 2, 4, 8 and 24 hours post administration. The concentrations of the parent compound in plasma and brain were determined by LC/MSMS.
as §1

[6] = system: SHSY-5Y dopaminergic cells; assay: MPP+ induced cell death, MTT assay; assay type: cell-based, human; conditions: 12.5 μM, varying concentrations of MPP+
Description: MPP+, eradicates approximately 75% of the cells in 24 hours. […] Naive Neuro2A cells (FIG. 2A) or SH-SY5Y neuroblastoma cells FIG. 2B,C) were cultured in RPMI 1640, 10% fetal bovine serum at 37° C. Cells were pretreated with compound 3 for 12-24 h. Subsequent change of culture medium with addition of 0, 1, 2 and 4 mM MPP+ induced cell death. MTT assays determined the relative number of surviving cells FIG. 2D).
Such assays were performed, for instance, by adding compound 46 (12.5 μM) to human origin SHSY-5Y dopaminergic cells in which death was induced by the mitochondria complex I inhibitor MPP+ (1-methyl-4-phenylpyridinium), the active metabolite of MPTP (1-methyl-4-phenyl-1,2,3,6-tetrahydropyridine). […] Most of the MPP+-treated cells receiving vehicle died, while the few surviving cells remained attached to the plate but were rounded and had lost all projections. These morphological changes indicated impaired neuronal function. On the contrary, cells treated with compound 46 appeared healthy, flattened, well-attached, and their projections remained intact.
We examined the neuroprotective capability of Nurr1:RXRα heterodimer activation in SHSY-5Y cells where death was induced by either the oxidative stress related H2O2 or the mitochondria complex I inhibitor MPP+ (1-methyl-4-phenylpyridinium) (FIG. 72B). […] The protection conferred by compound 3 was Nurr1-dependent, since it was abrogated by knocking-down endogenous Nurr1 mRNA (FIGS. 1E and 72D). The neuroprotective effects of compound 3 extend to damage induced by the PD-associated mutation G2019S in the Leucine-Rich Repeat Kinase 2 (LRRK2) gene, the most common genetic defect associated with clinical PD (Tofaris et al. J. Neurosci. 26:3942-3950, 2006). Rat cortical neurons, co-transfected with CMV-GFP for identification, and CMVLRRK2-G2019S cDNAs show increased apoptosis as assessed by DAPI staining, compared to control neurons co-transfected with a LRRK2 wt cDNA.

Chain of Nurr1:RXRα heterodimer (P19793 whole entry): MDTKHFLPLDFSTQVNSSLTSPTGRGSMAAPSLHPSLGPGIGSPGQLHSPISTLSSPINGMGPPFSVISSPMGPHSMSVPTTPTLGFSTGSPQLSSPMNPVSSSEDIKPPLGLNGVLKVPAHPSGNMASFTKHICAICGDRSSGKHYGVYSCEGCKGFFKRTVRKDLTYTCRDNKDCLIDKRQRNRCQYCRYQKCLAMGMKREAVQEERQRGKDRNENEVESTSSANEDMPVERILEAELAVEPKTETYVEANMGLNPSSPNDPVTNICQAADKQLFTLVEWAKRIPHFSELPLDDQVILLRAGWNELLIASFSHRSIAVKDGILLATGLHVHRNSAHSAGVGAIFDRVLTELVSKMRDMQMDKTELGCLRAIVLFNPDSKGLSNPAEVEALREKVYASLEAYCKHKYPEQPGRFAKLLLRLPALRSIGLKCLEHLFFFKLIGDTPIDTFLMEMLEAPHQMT
Chain of Nurr1:RXRα heterodimer (P43354 whole entry partner): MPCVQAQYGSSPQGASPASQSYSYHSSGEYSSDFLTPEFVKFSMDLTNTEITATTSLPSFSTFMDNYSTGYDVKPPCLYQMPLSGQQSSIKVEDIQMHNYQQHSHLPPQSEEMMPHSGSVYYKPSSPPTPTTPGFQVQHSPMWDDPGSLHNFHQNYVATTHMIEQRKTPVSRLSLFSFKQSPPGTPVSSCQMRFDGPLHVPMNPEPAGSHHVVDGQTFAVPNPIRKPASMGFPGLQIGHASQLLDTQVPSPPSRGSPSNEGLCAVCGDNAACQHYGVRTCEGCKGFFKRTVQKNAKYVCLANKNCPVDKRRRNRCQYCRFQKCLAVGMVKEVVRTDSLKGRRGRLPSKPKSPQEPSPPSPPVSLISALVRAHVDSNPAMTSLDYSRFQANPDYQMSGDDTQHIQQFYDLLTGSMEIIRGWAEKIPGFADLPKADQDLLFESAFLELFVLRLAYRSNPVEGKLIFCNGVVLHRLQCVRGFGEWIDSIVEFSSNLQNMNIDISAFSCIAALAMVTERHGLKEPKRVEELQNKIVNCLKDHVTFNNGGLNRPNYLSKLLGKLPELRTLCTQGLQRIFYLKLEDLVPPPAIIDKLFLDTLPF
Chain of Nur77:RXRα heterodimers (P19793 whole entry, looked up): as the sequence (P19793 whole entry) above
Chain of Nur77:RXRα heterodimers (P22736 whole entry partner, looked up): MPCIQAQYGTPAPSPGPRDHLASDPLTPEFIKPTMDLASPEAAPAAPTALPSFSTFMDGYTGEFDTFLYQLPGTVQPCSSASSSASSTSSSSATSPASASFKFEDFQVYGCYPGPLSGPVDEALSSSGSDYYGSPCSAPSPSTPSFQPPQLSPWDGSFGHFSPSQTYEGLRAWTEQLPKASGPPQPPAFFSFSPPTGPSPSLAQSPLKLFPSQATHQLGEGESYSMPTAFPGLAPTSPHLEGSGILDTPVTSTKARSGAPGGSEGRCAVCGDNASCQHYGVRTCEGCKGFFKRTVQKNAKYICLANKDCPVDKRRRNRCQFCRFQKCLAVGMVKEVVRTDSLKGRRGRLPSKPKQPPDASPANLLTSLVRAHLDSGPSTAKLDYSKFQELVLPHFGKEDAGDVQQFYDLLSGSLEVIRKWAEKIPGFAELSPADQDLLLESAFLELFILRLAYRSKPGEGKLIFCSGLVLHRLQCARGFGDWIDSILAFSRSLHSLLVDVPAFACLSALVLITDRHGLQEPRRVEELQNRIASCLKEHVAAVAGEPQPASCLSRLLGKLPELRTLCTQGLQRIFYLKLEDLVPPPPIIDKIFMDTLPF

- EC50 [1]: 5 µM
Compound: C=CCc1c(C)nc(-c2ccccc2)nc1Nc1ccc(C(=O)OCCCOc2ccc(C[C@H](N)C(=O)O)cc2)cc1 [Example 32, (S)-2-(4-(3-(4-(5-allyl-6-methyl-2-phenylpyrimidin-4-ylamino)benzoyloxy)propoxy)phenyl)-1-carboxyethanaminium chloride]

- EC50 [1]: 10 µM
Compound: C=CCc1c(C)nc(-c2ccccc2)nc1Nc1ccc(C(=O)Oc2ccc(C[C@H](N)C(=O)O)cc2)cc1 [Example 31, (S)-2-(4-(4-(5-allyl-6-methyl-2-phenylpyrimidin-4-ylamino)benzoyloxy)phenyl)-1-carboxyethanaminium chloride]

- EC50 [1]: 2.5 µM
Compound: Cc1nc(-c2ccccc2)nc2c1cc(C)n2-c1ccc(C(=O)O)cc1 [Example 45, 4-(4,6-dimethyl-2-phenyl-7H-pyrrolo[2,3-d]pyrimidin-7-yl)benzoic acid]

- EC50 [1]: 2 µM
Compound: C=CCc1c(C)nc(-c2ccccc2)nc1Nc1ccc(C(=O)OCOC(=O)C(C)(C)C)cc1 [Example 30, pivaloyloxymethyl 4-(5-allyl-6-methyl-2-phenylpyrimidin-4-ylamino)benzoate]

Compound: C=CCc1c(C)nc(-c2ccccc2)nc1Nc1ccc(C(=O)O)cc1 [XCT0135908, reference compound]
- compound stability in vivo ([2]; mice, 1 and 2 hours after IP, plasma and brain homogenates): low compound stability
- brain penetration ([2]; mice, IP administration): minimal brain penetration
- Kp ([2]; mouse, brain homogenate / blood plasma, mice, 1 and 2 hours after IP XCT (printed 1 μg/kg), LC-MS/MS): < 0.03
- midbrain TH expression [3]: did not result in any expression alterations
- relative activation of Nur77:RXRα vs Nurr1:RXRα heterodimers [4]: preferentially activates Nur77:RXRα heterodimers and not Nurr1:RXRα heterodimers
- midbrain c-jun expression ([5]; IP or intracerebroventricular 1 and 10 mg/kg, different time points): did not result in any expression alterations

- bioavailability ([2]; mouse, in vivo, ip): highly bioavailable
- EC50 [1]: 0.7 µM
Compound: Cc1nc(-c2ccccc2)nc2c1cc(C)n2-c1ccc(C(=O)O)cc1Br [Example 46, 3-bromo-4-(4,6-dimethyl-2-phenyl-7H-pyrrolo[2,3-d]pyrimidin-7-yl)benzoic acid]
- brain penetration ([2]; mouse, in vivo, ip): capable of crossing the blood brain barrier
- cell survival against MPP+ [6]: significantly increased the survival of cells
- c-jun transcriptional activation in the midbrain ([5]; IP compound 46, qPCR 2 hours after administration): significant c-jun transcriptional activation
